According to ChEMBL document CHEMBL4665709, “Rational Avoidance of Protease Cleavage Sites and Symmetrical End-Tagging Significantly Enhances the Stability and Therapeutic Potential of Antimicrobial Peptides” (J Med Chem, 2020):
In brackets after ≈: the same amount, converted by molar mass. Activity calls are given as the source filed them. The rule behind the calls is not given here. Where a SMILES comes first, the peptide text is derived from it.

Assays:
Escherichia coli [1] = experiment: Antibacterial activity against Escherichia coli ATCC 25922 measured after 18 to 24 hrs in presence of chymotrypsin by CLSI-based broth microdilution method; type: functional, organism-based; settings: time hrs 18-24
[2] = Stability of compound assessed as proteinase K (unknown origin)-mediated drug degradation after 8 hrs by SDS-PAGE analysis; type: ADME; settings: human
[3] = Stability of compound at 100 degreeC after 30 to 90 mins; type: physicochemical; settings: time 30-90 min
Staphylococcus aureus [4] = experiment: Antibacterial activity against Staphylococcus aureus 29213 with 0.0625-2 mg/mL proteinase K for 1 hr followed by test compound addition measured after 4 to 8 hrs by CLSI-based broth microdilution method; type: functional, organism-based; settings: time hrs 4-8
Staphylococcus aureus [5] = experiment: Antibacterial activity against methicillin-resistant Staphylococcus aureus 43300 after 18 to 24 hrs by CLSI-based broth microdilution method; type: functional; settings: time hrs 18-24
Escherichia coli [6] = experiment: Antibacterial activity against Escherichia coli 25922 measured over 40 passages; type: functional, organism-based; settings: ATCC 25922
Cell membrane [7] = experiment: Disruption of membrane integrity in Escherichia coli ATCC 25922 assessed as induction of membrane rupture at 2 times MIC after 1 hr by PI-staining based flow cytometry analysis relative to control
Escherichia coli [8] = experiment: Antibacterial activity against Escherichia coli ATCC 25922 infected in C57BL/6 mouse assessed as reduction in IL-1beta level in serum at 10 mg/kg, ip measured after 11 hrs by ELISA; type: functional, organism-based
Cell membrane [9] = experiment: Induction of membrane permeabilization in Escherichia coli ATCC 25922 after 1 hr by PI fluorescence staining-based confocal microscopy analysis
Staphylococcus aureus [10] = experiment: Antibacterial activity against Staphylococcus aureus 29213 with 0.0625-2 mg/mL chymotrypsin for 1 hr followed by test compound addition measured after 4 to 8 hrs by CLSI-based broth microdilution method; type: functional, organism-based; settings: time hrs 4-8
Escherichia coli [11] = experiment: Antibacterial activity against Escherichia coli ATCC 25922 infected in C57BL/6 mouse assessed as reduction in bacterial load in spleen at 10 mg/kg, ip measured after 11 hrs (reference value: 6.02 log CFU/g); type: functional
[12] = Antibacterial activity against Salmonella pullorum 7913 after 18 to 24 hrs by CLSI-based broth microdilution method; type: functional, Salmonella enterica subsp. enterica serovar Pullorum; settings: Salmonella enterica, time hrs 18-24
[13] = Toxicity in C57BL/6 mouse assessed as effect on aspartate aminotransferase level at 20 mg/kg, ip measured after 5 days; type: organism-based; settings: in vivo, 120 h, time 5 day
Cell membrane [14] = experiment: Induction of structural changes in membrane of Staphylococcus aureus ATCC 29213 assessed as membrane damage at 1 times MIC after 1 hr by transmission electron microscopy; type: subcellular
Streptococcus agalactiae = experiment: Antibacterial activity against Streptococcus agalactiae H92 after 18 to 24 hrs by CLSI-based broth microdilution method; type: functional; settings: time hrs 18-24
Escherichia coli [15] = experiment: Antibacterial activity against Escherichia coli ATCC 25922 after 18 to 24 hrs in presence of 1 mM Mg2+ by CLSI-based broth microdilution method; type: functional; settings: time hrs 18-24
Escherichia coli [16] = experiment: Antibacterial activity against Escherichia coli ATCC 25922 after 18 to 24 hrs by CLSI-based broth microdilution method; type: functional; settings: time hrs 18-24
Staphylococcus aureus [17] = experiment: Antibacterial activity against Staphylococcus aureus 29213 with 0.0625-2 mg/mL pepsin for 1 hr followed by test compound addition measured after 4 to 8 hrs by CLSI-based broth microdilution method; type: functional, organism-based; settings: time hrs 4-8
[18] = Therapeutic index, ratio of MHC for human RBC to geometric mean of peptide MIC for Escherichia coli UB1005; type: toxicity; settings: human red blood cells (RBC), read-out: TI
[19] = Therapeutic index, ratio of MHC for human RBC to geometric mean of peptide MIC for Salmonella typhimurium 7731; type: toxicity; settings: human red blood cells (RBC), read-out: TI
Escherichia coli [20] = experiment: Antibacterial activity against Escherichia coli ATCC 25922 infected in C57BL/6 mouse assessed as reduction in IL-6 level in serum at 10 mg/kg, ip measured after 11 hrs by ELISA; type: functional, organism-based
[21] = Stability of compound assessed as chymotrypsin (unknown origin)-mediated drug degradation after 8 hrs by RP-HPLC analysis; type: ADME; settings: human
Escherichia coli [22] = experiment: Antibacterial activity against Escherichia coli ATCC 25922 after 18 to 24 hrs in presence of 50% human serum by CLSI-based broth microdilution method; type: functional; settings: time hrs 18-24
Escherichia coli [23] = experiment: Antibacterial activity against Escherichia coli ATCC 25922 infected in C57BL/6 mouse assessed as reduction in lesion in lung at 10 mg/kg, ip measured after 11 hrs by hematoxylin and eosin staining based assay; type: functional, organism-based
[24] = Therapeutic index, ratio of MHC for human RBC to geometric mean of peptide MIC for Enterococcus faecalis ATCC 29212; type: toxicity; settings: human red blood cells (RBC), read-out: TI
RAW264.7 [25] = experiment: Antiinflammatory activity in mouse RAW264.7 cells assessed as inhibition of LPS-induced IL-1beta production after 24 hrs by ELISA; type: functional, cell-based
Staphylococcus aureus [26] = experiment: Antibacterial activity against Staphylococcus aureus ATCC 29213 after 18 to 24 hrs in presence of 6 uM NH4+ by CLSI-based broth microdilution method; type: functional; settings: time hrs 18-24
[27] = Therapeutic index, ratio of MHC for human RBC to geometric mean of peptide MIC for Salmonella typhimurium 14028; type: toxicity; settings: human red blood cells (RBC), read-out: TI
Escherichia coli [28] = experiment: Antibacterial activity against Escherichia coli ATCC 25922 measured after 18 to 24 hrs in presence of proteinase K by CLSI-based broth microdilution method; type: functional, organism-based; settings: time hrs 18-24
[29] = Stability of compound assessed as pepsin (unknown origin)-mediated drug degradation after 8 hrs by SDS-PAGE analysis; type: ADME; settings: human
Escherichia coli [30] = experiment: Antibacterial activity against Escherichia coli ATCC 25922 infected in C57BL/6 mouse assessed as reduction in inflammatory cell infiltration in lung at 10 mg/kg, ip measured after 11 hrs by hematoxylin and eosin staining based assay; type: functional, organism-based
[31] = Toxicity in C57BL/6 mouse assessed as effect on blood urea nitrogen level at 20 mg/kg, ip measured after 5 days; type: organism-based; settings: in vivo, 120 h, time 5 day
[32] = Cytotoxicity against HEK-293T cells assessed as cell viability at 128 uM by MTT assay relative to control; type: cell-based; settings: human, read-out: Activity
RAW264.7 [33] = experiment: Antiinflammatory activity in mouse RAW264.7 cells assessed as inhibition of LPS-induced TNF-alpha production after 24 hrs by ELISA; type: functional, cell-based
[34] = Toxicity in C57BL/6 mouse assessed as effect on creatinine level at 20 mg/kg, ip measured after 5 days; type: organism-based; settings: in vivo, 120 h, time 5 day
Escherichia coli [35] = experiment: Antibacterial activity against Escherichia coli UB1005 after 18 to 24 hrs by CLSI-based broth microdilution method; type: functional; settings: time hrs 18-24
Escherichia coli [36] = experiment: Antibacterial activity against Escherichia coli ATCC 25922 infected in C57BL/6 mouse assessed as reduction in bleeding in kidney at 10 mg/kg, ip measured after 11 hrs by hematoxylin and eosin staining based assay; type: functional, organism-based
Escherichia coli [37] = experiment: Antibacterial activity against Escherichia coli ATCC 25922 after 18 to 24 hrs in presence of 100% human serum by CLSI-based broth microdilution method; type: functional; settings: time hrs 18-24
Escherichia coli [38] = experiment: Antibacterial activity against Escherichia coli ATCC 25922 infected in C57BL/6 mouse assessed as reduction in lesion in spleen at 10 mg/kg, ip measured after 11 hrs by hematoxylin and eosin staining based assay; type: functional, organism-based

CC[C@H](C)[C@H](N)C(=O)N[C@H](C(=O)N[C@H](C(=O)N[C@@H](CS)C(=O)N[C@@H](CCCNC(=N)N)C(=O)N[C@@H](CCCCN)C(=O)N1CCC[C@H]1C(=O)N[C@H](C(=O)N[C@H](C(=O)N[C@@H](CS)C(=O)N[C@@H](CCCNC(=N)N)C(=O)N[C@@H](CCCCN)C(=O)N1CCC[C@H]1C(=O)N[C@H](C(=O)N[C@H](C(=O)N[C@@H](CS)C(=O)N[C@@H](CCCNC(=N)N)C(=O)N[C@@H](CCCCN)C(=O)N1CCC[C@H]1C(=O)N[C@H](C(=O)N[C@H](C(=O)N[C@@H](CS)C(=O)N[C@@H](CCCNC(=N)N)C(=O)N[C@@H](CCCCN)C(=O)N1CCC[C@H]1C(=O)N[C@H](C(=O)N[C@H](C(=O)N[C@H](C(N)=O)[C@@H](C)CC)[C@@H](C)CC)[C@@H](C)CC)[C@@H](C)CC)[C@@H](C)CC)[C@@H](C)CC)[C@@H](C)CC)[C@@H](C)CC)[C@@H](C)CC)[C@@H](C)CC)[C@@H](C)CC (H-IIICRKPIICRKPIICRKPIICRKPIII-NH2)
Activity (Escherichia coli [1]): Active | Stabilty [2]: Stable | Stabilty [3]: Stable | Activity (Staphylococcus aureus [4]): Active | MIC (Staphylococcus aureus [5]): 4 µM (≈ 13.3 µg/mL) | Activity (Escherichia coli [6]): Active | Activity (Cell membrane [7]): > 90% | Activity (Escherichia coli [8]): Active | Activity (Cell membrane [9]): Active | Activity (Staphylococcus aureus [10]): Active | Activity (Escherichia coli [11]): 4.89 log10CFU/g | MIC [12]: 4 µM (≈ 13.3 µg/mL) | Activity [13]: Non-Toxic | Activity (Cell membrane [14]): Active | MIC (Streptococcus agalactiae): 2 µM (≈ 6.63 µg/mL) | MIC (Escherichia coli [15]): 4 µM | MIC (Escherichia coli [16]): 2 µM (≈ 6.63 µg/mL) | Activity (Staphylococcus aureus [17]): Active | selectivity ratio [18]: 57 | selectivity ratio [19]: 57 | Activity (Escherichia coli [20]): Active | Stabilty [21]: Stable | MIC (Escherichia coli [22]): 4 µM | Activity (Escherichia coli [23]): Active | selectivity ratio [24]: 28.5 | Activity (RAW264.7 [25]): Dose-dependent effect | MIC (Staphylococcus aureus [26]): 8 µM | selectivity ratio [27]: 57 | Activity (Escherichia coli [28]): Active | Stabilty [29]: Stable | Activity (Escherichia coli [30]): Active | Activity [31]: Non-Toxic | viability at 128 µM [32]: > 90% | Activity (RAW264.7 [33]): Dose-dependent effect | Activity [34]: Non-Toxic | MIC (Escherichia coli [35]): 2 µM (≈ 6.63 µg/mL) | Activity (Escherichia coli [36]): Active | MIC (Escherichia coli [37]): 8 µM | Activity (Escherichia coli [38]): Active
